Measured values reported in PMC5540273, “Progress towards a public chemogenomic set for protein kinases and a call for contributions” (PLoS ONE, 2017).

What follows are molecules tested against AKT3 (Homo sapiens, UniProt Q9Y243) (assay: KINOMEscan competition binding). Conditions: read-out: %Inh AKT3.
AKT3, sequence (Q9Y243 whole entry): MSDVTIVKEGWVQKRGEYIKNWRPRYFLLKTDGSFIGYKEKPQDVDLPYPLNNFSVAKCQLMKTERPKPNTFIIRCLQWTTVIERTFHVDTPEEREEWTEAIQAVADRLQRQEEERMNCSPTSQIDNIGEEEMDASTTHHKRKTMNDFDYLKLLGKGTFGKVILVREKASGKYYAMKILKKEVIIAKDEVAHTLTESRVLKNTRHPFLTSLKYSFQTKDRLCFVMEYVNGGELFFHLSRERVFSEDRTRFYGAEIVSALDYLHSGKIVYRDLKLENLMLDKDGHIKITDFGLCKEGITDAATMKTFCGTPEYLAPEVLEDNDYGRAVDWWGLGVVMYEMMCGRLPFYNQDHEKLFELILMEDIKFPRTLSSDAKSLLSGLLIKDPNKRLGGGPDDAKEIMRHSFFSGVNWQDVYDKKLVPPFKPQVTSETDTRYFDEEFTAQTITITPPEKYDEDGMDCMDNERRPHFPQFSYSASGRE

Point of comparison: `Cn1cc(-c2cnc(N)c3c(-c4ccc5c(c4)CCN5C(=O)Cc4ccccc4)csc23)cn1` [UNC10225012A], inhibition at 1 µM 8%. Against it:
- O=c1cc(N2CCOCC2)nc2n(Cc3cccc(Cl)c3Cl)c(C3CC3)nn12 [UNC10225469A] — lower, 0%
- CS(=O)(=O)Cc1ccc(Nc2nccc(-c3c(-c4cccc(NC(=O)C5CCCCC5)c4)nn4ncccc34)n2)cc1 [UNC10225159A] — lower, 0%
- COc1cccc(OC)c1C(=O)Nc1cccc(-c2nn3ccccc3c2-c2ccnc(Nc3cccc(F)c3)n2)c1 [UNC10225310A] — lower, 0%
- Cc1ccc(NC(=O)Nc2cccc(C(F)(F)F)c2)cc1 [UNC10225187A] — lower, 0%

The molecules below were run against HIPK1 (Homo sapiens, UniProt Q86Z02) (assay: KINOMEscan competition binding). Conditions: read-out: %Inh HIPK1.
HIPK1, sequence (Q86Z02 whole entry): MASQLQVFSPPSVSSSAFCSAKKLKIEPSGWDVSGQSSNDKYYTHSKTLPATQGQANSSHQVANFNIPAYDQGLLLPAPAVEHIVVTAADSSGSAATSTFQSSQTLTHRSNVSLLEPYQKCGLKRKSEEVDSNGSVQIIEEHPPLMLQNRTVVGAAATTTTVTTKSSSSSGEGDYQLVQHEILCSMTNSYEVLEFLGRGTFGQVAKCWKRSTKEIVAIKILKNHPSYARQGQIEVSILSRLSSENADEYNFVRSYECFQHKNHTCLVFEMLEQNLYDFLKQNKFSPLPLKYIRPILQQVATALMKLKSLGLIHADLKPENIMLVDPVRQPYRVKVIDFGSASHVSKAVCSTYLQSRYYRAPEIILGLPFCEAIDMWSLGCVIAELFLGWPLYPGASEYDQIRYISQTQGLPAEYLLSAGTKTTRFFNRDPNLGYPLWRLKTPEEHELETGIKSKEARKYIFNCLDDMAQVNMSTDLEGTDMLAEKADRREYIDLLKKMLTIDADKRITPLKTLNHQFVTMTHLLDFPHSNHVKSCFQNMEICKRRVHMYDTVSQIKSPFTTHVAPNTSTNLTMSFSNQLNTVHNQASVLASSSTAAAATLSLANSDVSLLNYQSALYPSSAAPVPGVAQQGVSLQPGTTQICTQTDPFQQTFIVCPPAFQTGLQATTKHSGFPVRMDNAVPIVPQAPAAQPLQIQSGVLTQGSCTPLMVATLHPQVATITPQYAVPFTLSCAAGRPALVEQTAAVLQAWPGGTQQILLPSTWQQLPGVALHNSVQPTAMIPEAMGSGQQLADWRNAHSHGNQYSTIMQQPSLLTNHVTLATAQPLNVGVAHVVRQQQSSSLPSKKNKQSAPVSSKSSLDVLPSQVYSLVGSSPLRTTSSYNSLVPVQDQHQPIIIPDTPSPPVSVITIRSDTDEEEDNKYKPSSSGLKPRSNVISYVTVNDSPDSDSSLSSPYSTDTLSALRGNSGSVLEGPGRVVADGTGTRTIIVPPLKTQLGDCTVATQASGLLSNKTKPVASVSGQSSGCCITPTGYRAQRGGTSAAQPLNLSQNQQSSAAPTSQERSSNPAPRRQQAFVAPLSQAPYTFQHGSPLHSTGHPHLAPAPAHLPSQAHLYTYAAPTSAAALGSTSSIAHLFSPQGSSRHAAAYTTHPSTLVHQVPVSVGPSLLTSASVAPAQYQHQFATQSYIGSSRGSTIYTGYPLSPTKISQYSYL

Point of comparison: `O=c1cc(N2CCOCC2)nc2n(Cc3cccc(Cl)c3Cl)c(C3CC3)nn12` [UNC10225469A], inhibition at 1 µM 16%. Against it:
- Cn1cc(-c2cnc(N)c3c(-c4ccc5c(c4)CCN5C(=O)Cc4ccccc4)csc23)cn1 [UNC10225012A] — higher, 21%
- CS(=O)(=O)Cc1ccc(Nc2nccc(-c3c(-c4cccc(NC(=O)C5CCCCC5)c4)nn4ncccc34)n2)cc1 [UNC10225159A] — lower, 5%
- COc1cccc(OC)c1C(=O)Nc1cccc(-c2nn3ccccc3c2-c2ccnc(Nc3cccc(F)c3)n2)c1 [UNC10225310A] — higher, 31%
- Cc1ccc(NC(=O)Nc2cccc(C(F)(F)F)c2)cc1 [UNC10225187A] — lower, 8%

What follows are molecules tested against CLK3 (Homo sapiens, UniProt P49761) (assay: KINOMEscan competition binding). Conditions: read-out: %Inh CLK3.
CLK3, sequence (P49761 whole entry): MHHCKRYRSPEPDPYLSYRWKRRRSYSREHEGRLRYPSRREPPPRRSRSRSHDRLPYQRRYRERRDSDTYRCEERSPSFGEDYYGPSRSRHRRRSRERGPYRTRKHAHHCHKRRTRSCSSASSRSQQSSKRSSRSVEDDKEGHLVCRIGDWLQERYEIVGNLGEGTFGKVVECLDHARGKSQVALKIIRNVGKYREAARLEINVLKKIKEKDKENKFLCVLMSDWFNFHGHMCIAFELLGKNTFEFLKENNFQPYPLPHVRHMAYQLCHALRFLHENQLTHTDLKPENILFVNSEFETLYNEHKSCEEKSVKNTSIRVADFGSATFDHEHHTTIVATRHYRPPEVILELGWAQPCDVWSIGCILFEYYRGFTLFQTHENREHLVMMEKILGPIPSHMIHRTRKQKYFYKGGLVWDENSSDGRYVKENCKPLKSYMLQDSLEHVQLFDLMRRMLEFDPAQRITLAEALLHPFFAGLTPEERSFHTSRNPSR

Point of comparison: `Cn1cc(-c2cnc(N)c3c(-c4ccc5c(c4)CCN5C(=O)Cc4ccccc4)csc23)cn1` [UNC10225012A], inhibition at 1 µM 0%. Against it:
- O=c1cc(N2CCOCC2)nc2n(Cc3cccc(Cl)c3Cl)c(C3CC3)nn12 [UNC10225469A] — higher, 14%
- CS(=O)(=O)Cc1ccc(Nc2nccc(-c3c(-c4cccc(NC(=O)C5CCCCC5)c4)nn4ncccc34)n2)cc1 [UNC10225159A] — higher, 24%
- COc1cccc(OC)c1C(=O)Nc1cccc(-c2nn3ccccc3c2-c2ccnc(Nc3cccc(F)c3)n2)c1 [UNC10225310A] — the same, 0%
- Cc1ccc(NC(=O)Nc2cccc(C(F)(F)F)c2)cc1 [UNC10225187A] — the same, 0%

Each molecule was assayed against T1, HIPK4 (Homo sapiens, UniProt Q8NE63) (assay: KINOMEscan competition binding). Conditions: read-out: %Inh HIPK4.
T1 sequence (Q8NE63 1-616): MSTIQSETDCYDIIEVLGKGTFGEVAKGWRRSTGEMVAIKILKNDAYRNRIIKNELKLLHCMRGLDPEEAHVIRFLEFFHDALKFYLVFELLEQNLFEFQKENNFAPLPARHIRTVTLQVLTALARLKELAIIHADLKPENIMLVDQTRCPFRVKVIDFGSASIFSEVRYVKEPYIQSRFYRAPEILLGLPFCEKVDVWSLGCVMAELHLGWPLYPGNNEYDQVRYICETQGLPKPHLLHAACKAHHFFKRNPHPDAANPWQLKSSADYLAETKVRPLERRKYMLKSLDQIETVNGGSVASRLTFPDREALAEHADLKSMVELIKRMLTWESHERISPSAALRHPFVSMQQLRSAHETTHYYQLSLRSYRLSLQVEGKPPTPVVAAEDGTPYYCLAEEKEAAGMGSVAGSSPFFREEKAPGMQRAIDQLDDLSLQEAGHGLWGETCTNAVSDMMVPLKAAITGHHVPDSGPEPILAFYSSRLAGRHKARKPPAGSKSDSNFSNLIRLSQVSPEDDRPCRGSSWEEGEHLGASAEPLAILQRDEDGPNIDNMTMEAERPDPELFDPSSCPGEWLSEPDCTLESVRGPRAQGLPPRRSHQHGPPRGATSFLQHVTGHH

Point of comparison: `O=c1cc(N2CCOCC2)nc2n(Cc3cccc(Cl)c3Cl)c(C3CC3)nn12` [UNC10225469A], inhibition at 1 µM 0%. Against it:
- Cn1cc(-c2cnc(N)c3c(-c4ccc5c(c4)CCN5C(=O)Cc4ccccc4)csc23)cn1 [UNC10225012A] — the same, 0%
- CS(=O)(=O)Cc1ccc(Nc2nccc(-c3c(-c4cccc(NC(=O)C5CCCCC5)c4)nn4ncccc34)n2)cc1 [UNC10225159A] — the same, 0%
- COc1cccc(OC)c1C(=O)Nc1cccc(-c2nn3ccccc3c2-c2ccnc(Nc3cccc(F)c3)n2)c1 [UNC10225310A] — higher, 84%
- Cc1ccc(NC(=O)Nc2cccc(C(F)(F)F)c2)cc1 [UNC10225187A] — the same, 0%

What follows are molecules tested against FGR (Homo sapiens, UniProt P09769) (assay: KINOMEscan competition binding). Conditions: read-out: %Inh FGR.
FGR, sequence (P09769 whole entry): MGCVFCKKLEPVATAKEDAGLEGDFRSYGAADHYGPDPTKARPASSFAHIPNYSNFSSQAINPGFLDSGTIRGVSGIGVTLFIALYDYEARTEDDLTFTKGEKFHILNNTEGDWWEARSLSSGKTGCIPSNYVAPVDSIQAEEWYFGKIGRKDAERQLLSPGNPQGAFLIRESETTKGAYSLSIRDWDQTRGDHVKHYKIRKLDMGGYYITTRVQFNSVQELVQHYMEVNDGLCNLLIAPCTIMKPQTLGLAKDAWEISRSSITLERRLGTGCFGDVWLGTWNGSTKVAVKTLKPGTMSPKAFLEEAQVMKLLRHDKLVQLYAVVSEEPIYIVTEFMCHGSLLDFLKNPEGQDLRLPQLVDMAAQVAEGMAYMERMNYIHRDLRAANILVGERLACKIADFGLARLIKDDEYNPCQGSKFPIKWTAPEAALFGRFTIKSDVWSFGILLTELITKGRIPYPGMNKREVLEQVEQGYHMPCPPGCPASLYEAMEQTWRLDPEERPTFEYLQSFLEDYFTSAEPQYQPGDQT

Point of comparison: `O=c1cc(N2CCOCC2)nc2n(Cc3cccc(Cl)c3Cl)c(C3CC3)nn12` [UNC10225469A], inhibition at 1 µM 9%. Against it:
- Cn1cc(-c2cnc(N)c3c(-c4ccc5c(c4)CCN5C(=O)Cc4ccccc4)csc23)cn1 [UNC10225012A] — higher, 75%
- CS(=O)(=O)Cc1ccc(Nc2nccc(-c3c(-c4cccc(NC(=O)C5CCCCC5)c4)nn4ncccc34)n2)cc1 [UNC10225159A] — higher, 27%
- COc1cccc(OC)c1C(=O)Nc1cccc(-c2nn3ccccc3c2-c2ccnc(Nc3cccc(F)c3)n2)c1 [UNC10225310A] — higher, 23%
- Cc1ccc(NC(=O)Nc2cccc(C(F)(F)F)c2)cc1 [UNC10225187A] — lower, 0%

Each molecule was assayed against T2, EPHA1 (Homo sapiens, UniProt P21709) (assay: KINOMEscan competition binding). Conditions: read-out: %Inh EPHA1.
T2 sequence (P21709 26-976): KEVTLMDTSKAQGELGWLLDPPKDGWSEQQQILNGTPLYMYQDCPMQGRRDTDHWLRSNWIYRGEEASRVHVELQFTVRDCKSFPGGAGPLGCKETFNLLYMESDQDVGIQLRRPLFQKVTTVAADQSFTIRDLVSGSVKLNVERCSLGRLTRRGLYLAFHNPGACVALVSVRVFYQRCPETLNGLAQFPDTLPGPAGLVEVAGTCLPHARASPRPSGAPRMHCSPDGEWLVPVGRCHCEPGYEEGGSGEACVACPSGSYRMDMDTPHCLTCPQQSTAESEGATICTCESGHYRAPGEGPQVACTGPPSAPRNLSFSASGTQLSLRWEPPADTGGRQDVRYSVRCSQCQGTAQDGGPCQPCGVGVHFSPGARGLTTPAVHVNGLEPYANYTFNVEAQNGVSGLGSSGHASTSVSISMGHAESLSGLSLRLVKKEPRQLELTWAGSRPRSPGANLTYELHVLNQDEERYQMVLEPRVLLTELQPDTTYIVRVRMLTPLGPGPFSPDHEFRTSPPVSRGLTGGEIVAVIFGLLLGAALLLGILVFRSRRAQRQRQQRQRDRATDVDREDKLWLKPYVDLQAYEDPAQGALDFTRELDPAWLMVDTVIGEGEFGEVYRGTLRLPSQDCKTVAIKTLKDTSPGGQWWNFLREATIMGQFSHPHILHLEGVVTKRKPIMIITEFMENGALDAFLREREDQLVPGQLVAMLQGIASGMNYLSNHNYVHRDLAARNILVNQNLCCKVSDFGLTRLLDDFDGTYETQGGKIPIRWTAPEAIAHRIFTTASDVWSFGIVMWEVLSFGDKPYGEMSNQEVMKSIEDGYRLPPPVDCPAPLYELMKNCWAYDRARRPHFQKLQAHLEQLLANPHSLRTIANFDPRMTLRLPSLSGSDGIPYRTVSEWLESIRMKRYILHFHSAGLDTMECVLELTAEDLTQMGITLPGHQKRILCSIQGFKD

Point of comparison: `Cn1cc(-c2cnc(N)c3c(-c4ccc5c(c4)CCN5C(=O)Cc4ccccc4)csc23)cn1` [UNC10225012A], inhibition at 1 µM 11%. Against it:
- O=c1cc(N2CCOCC2)nc2n(Cc3cccc(Cl)c3Cl)c(C3CC3)nn12 [UNC10225469A] — lower, 7%
- CS(=O)(=O)Cc1ccc(Nc2nccc(-c3c(-c4cccc(NC(=O)C5CCCCC5)c4)nn4ncccc34)n2)cc1 [UNC10225159A] — lower, 6%
- COc1cccc(OC)c1C(=O)Nc1cccc(-c2nn3ccccc3c2-c2ccnc(Nc3cccc(F)c3)n2)c1 [UNC10225310A] — lower, 4%
- Cc1ccc(NC(=O)Nc2cccc(C(F)(F)F)c2)cc1 [UNC10225187A] — higher, 17%

The molecules below were run against T3, CTK (Homo sapiens, UniProt P42679) (assay: KINOMEscan competition binding). Conditions: read-out: %Inh CTK.
T3 sequence (P42679 1-507): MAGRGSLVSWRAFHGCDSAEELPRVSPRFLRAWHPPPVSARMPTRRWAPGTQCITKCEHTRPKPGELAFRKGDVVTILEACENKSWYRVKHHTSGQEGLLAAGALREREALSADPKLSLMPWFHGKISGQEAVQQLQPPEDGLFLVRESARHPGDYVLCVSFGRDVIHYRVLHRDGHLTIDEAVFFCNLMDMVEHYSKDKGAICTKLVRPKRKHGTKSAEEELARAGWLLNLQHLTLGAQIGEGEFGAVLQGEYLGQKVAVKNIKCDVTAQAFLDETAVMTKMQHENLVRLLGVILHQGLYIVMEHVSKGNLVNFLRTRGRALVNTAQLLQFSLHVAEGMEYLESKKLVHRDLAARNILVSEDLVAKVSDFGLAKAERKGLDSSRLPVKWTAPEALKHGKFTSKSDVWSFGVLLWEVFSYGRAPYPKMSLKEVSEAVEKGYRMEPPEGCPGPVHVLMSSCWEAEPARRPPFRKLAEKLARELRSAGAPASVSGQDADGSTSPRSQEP

Point of comparison: `COc1cccc(OC)c1C(=O)Nc1cccc(-c2nn3ccccc3c2-c2ccnc(Nc3cccc(F)c3)n2)c1` [UNC10225310A], inhibition at 1 µM 21%. Against it:
- O=c1cc(N2CCOCC2)nc2n(Cc3cccc(Cl)c3Cl)c(C3CC3)nn12 [UNC10225469A] — lower, 0%
- Cn1cc(-c2cnc(N)c3c(-c4ccc5c(c4)CCN5C(=O)Cc4ccccc4)csc23)cn1 [UNC10225012A] — higher, 62%
- CS(=O)(=O)Cc1ccc(Nc2nccc(-c3c(-c4cccc(NC(=O)C5CCCCC5)c4)nn4ncccc34)n2)cc1 [UNC10225159A] — higher, 38%
- Cc1ccc(NC(=O)Nc2cccc(C(F)(F)F)c2)cc1 [UNC10225187A] — lower, 0%
